The data set concerns the target T1, CYP 1A2 (Homo sapiens, UniProt P05177).
T1 construct: For human liver microsome solution, a stock solution (20 mg/mL (4×final)) is used; from tissue; host or cells: human liver microsomes
T1 sequence (P05177 1-516): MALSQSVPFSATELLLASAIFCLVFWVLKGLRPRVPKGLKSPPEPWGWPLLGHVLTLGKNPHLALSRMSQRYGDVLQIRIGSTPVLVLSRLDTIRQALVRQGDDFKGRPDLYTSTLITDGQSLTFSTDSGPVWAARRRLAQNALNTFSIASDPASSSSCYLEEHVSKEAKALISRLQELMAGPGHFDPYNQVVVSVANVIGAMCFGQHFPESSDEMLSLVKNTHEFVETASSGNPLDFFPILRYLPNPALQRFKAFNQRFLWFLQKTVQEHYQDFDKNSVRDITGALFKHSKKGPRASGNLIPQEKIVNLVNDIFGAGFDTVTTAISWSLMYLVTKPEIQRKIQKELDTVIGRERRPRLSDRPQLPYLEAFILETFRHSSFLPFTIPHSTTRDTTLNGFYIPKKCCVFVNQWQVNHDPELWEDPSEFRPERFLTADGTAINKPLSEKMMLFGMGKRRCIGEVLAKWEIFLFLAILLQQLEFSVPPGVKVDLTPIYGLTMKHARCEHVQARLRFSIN
The experiment in a line: CYP inhibition testing, CYP 1A2. The data set is classed as in vitro ADME. The note with it: human liver microsomes; >75 = low level of inhibition. The procedure:
Select compounds are tested for CYP inhibition against five different CYP enzymes: CYP 1A2, CYP 2C9, CYP 2C19, CYP 2D6, CYP 3A4. Individual CYP enzymes are incubated with corresponding substrates with no inhibitor (negative control). Individual CYP enzymes are then incubated with corresponding substrates in the presence of test compound. […] Values of 70>v, w, x, y, z>30 indicate moderate level of inhibition of the corresponding enzyme.
The following reagents are used: Sodium Phosphate, monobasic; Sodium Phosphate, dibasic; β-Nicotinamide Adenine Dinucleotide Phosphate-Reduced (NADPH), Roche; Milli-Q Water; 0.1 M Potassium phosphate buffer (K-buffer), pH 7.4. The following stock solutions are used. Stock A (136.5 g of monobasic potassium phosphate in 1 L of Milli-Q water (1.0 M)). Stock B (174.2 g of dibasic potassium phosphate in 1 L of Milli-Q water (1.0 M)). 40.5 mL of Stock B is mixed with 9.5 mL of Stock A, and the total volume brought near 500 mL with Milli-Q water to give 0.1 M potassium phosphate buffer. The buffer is titrated with KOH or H3PO4 to pH 7.4. To prepare a cofactor buffer (4×, 8 mM NADPH), 66.7 mg of NADPH tetrasodium salt is dissolved in 10 mL of K-buffer. For human liver microsome solution, a stock solution (20 mg/mL (4×final)) is used.
The following Positive control stock solutions are prepared: 0.3 mM α-Naphthoflavone (MW: 272.3, 0.0817 mg of α-Naphthoflavone in 1 mL DMSO), 10 mM Sulfaphenazole (MW: 314.4, 3.14 mg of sulfaphenazole in 1 mL DMSO) 100 mM Omeprazole (MW: 345.4, 34.54 mg of omeprazole in 1 mL DMSO), 2.5 mM Quinidine (MW: 324, 0.81 mg of quinidine in 1 mL DMSO), and 2.5 mM Ketoconazole (MW: 531.4, 1.33 mg of ketoconazole in 1 mL DMSO).
The following substrate stock solutions are prepared: 6 mM Phenacetin (MW: 179.22, 1.075 mg of phenacetin in 1 mL can), 10 mM Diclofenac (MW: 318.83, 3.18 mg of Diclofenac in 1 ml H2O), 35 mM S-Mephenyloin (MW: 218.25, 7.64 mg of s-mephenyloin in 1 mL ACN 10 mM Bufuralol (MW: 297.82, 2.98 mg of Bufuralol in 1 ml H2O), 1 mM Midazolam (MW: 325.77, 0.326 mg of midazolam in 1 mL can), and 10 mM Testosterone (MW: 288.42, 2.88 mg of Testosterone in 1 ml ACN.
Test compounds and reference compounds (positive control) are prepared in 0.2 mg/ml liver microsome solution. A 0.2 mg/ml liver microsome solution (2×final) is prepared from stock solution by adding 10 μL microsome stock solutions (20 mg/ml) in 990 μL K-buffer. 8 μL of 10 mM test compound stock solution (in DMSO or other solvent at various concentrations) is diluted with 12 μL ACN to make 4 mM solutions. 1:3 serial dilutions are performed using DMSO/ACN (40:60) from 4 mM solution further down seven concentration points (400×final): 4 mM, 1.33 mM, 0.44 mM, 0.148 mM, […], 0.0165 mM, 0.00549 mM, 0 mM. […]
On the technique in general: Liver microsomes are a subcellular fraction often used to study metabolism.
In the case of `CCC(CC)Oc1ccc2c(C(=O)NC3CCNCC3)n[nH]c2n1` [compound 726], the “CYP (% negative controls) 1A2” value is recorded as 102 % negative controls.

As to `Cn1nc(C(=O)NC2CCN(CCN3CCCCC3)CC2)c2ccc(N3CCCCCC3)nc21` [compound 1047], the “CYP (% negative controls) 1A2” value is recorded as 98 % negative controls.

As for `Cn1nc(C(=O)NC2CCNCC2)c2ccc(N3CCCCCC3)nc21.O=C(O)C(F)(F)F.O=C(O)C(F)(F)F` [compound 697], the “CYP (% negative controls) 1A2” value is on record as 97 % negative controls.

`Cn1nc(CCCN2CCCC2)c2ccc(N3CCCCCCC3)nc21` [compound 1171]: the “CYP (% negative controls) 1A2” value came to 104 % negative controls.

The values above are taken from patent US20120232062A1, “AZAINDAZOLES TO TREAT FLAVIVIRIDAE VIRUS INFECTION” (EIGER BIOPHARMACEUTICALS, INC., priority 2009, published 2012).
